Measurements published in patent publication US20260287575A1, “LABEL-FREE METHODS FOR ASSESSING CELL STATE IN A BIOLOGICAL SAMPLE” (priority 2023, published 2026).

How the values were obtained:
mouse liver slice = experiment: dOCM imaging of live and dead cells in a mouse liver slice after local staurosporine injection; assay type: cell-based; details: local injection of 200 nL, 2 μM in DMSO; 300 μm thick liver slice
Description: A 300 μm thick slice of liver is shown. […] Live cells in the live region (lower part in the xy plane) are highlighted in the dOCM image volume. The live cells show high contrast compared to dead regions in the three orthogonal views (xy, yz, and xz planes). The positions of the yz and xz slices are indicated by the yellow lines in the xy plane. Scale bar: 100 μm.
Live cells were visible in the dOCM image volume. […] Good correlation is observed between the dOCM signal and the expected LMR signatures in this monolithic tissue (FIG. 3). […] In those areas, the dOCM is used to establish a ground truth for living tissue that can in turn be used to qualify the LMR and set specific discreet baseline LMR values for living tissue in these regions. This is as opposed to using a generic, specific value determined with an assumption that the tissue is monolithic.

[1] = tested on: CT26 live tumor fragments; experiment: FLIM lifetime metabolic ratio (LMR) with ground truth dyes (PI, caspase 3/7) in CT26 live tumor fragments; assay type: cell-based, murine; details: for shift in the LMR relative to time zero healthy tissue: normalized LMR; for mode of cell death induced: confirmed with Caspase 3/7 and PI probes
Experimental: Live tumor fragments (LTFs) from flank expressed murine syngeneic CT26 tumors were used to assess cell state using a combination of OCM/dOCM and FLIM as described herein.
CT26 tumors were excised, bisected, and cut into 300×300×300 μm LTFs. These fragments were sorted into 18-well plates for analysis by microscopy. Fragments were incubated at 37° C. in 5% CO2 in non-phenol red containing RPMI for up to four hours before being placed in the microscope. During imaging the sample was maintained in a stage-top incubator at 37° C., 5% CO2, and 95% humidity. Images were taken using a custom four channel multi-photon microscope built on a modified Zeiss Axiovert platform using adapted Bruker components, the PrairieView software package, and electronic components to drive and control the scanning microscope. FLIM data was acquired using an 8 channel Swabian instruments time tagger.
FLIM images were acquired at 50 micron and 75 micron depths into the tissue. Live tumor fragment structure and metabolic status were assessed based on the intrinsically fluorescent metabolic co-factors […] (NAD(P)H), excited at 740 nm, and flavin adenine dinucleotide (FAD), excited at 880 nm. […] LMR histogram data from the fragments was normalized by taking the mode of the resultant histogram data at baseline from healthy tissue and setting this value to 0 across the time course. Data derived from the NAD(P)H, and FAD signals were used to segment the image into individual Voronoi cells seeded from nuclear segmentation. The normalized LMR value was determined for each Voronoi cell.
To qualify observed shifts in the LMR, the ground truth nuclear localizing dyes for cleaved caspase 3/7 activity (Invitrogen) or necrosis (propidium iodide) were added. Voronoi cells that stained positive for propidium iodide were marked as dead and those that were not stained with PI were marked as live.
Cell death via apoptosis was induced using staurosporine. […] (FIG. 8). […] Probe data from Caspase 3/7 and P1 confirmed the shift for LMR values indicating live tissue vs. dead tissue. Cell death via necroptosis was induced using Shikonin. […] PI confirmed the necroptosis signature.
To validate the imaging routine in a model with clinical relevancy, CT26 mLTFs were treated with a combination of […] (3MA) and doxorubicin over a duration of 48 hours (FIG. 10). For this, mLTFs were imaged every 24 hours following treatment for longitudinal assessment of chemotherapeutic efficacy. Linear metabolic shift values obtained in separate CT26 control experiments were applied to Voronoi segmented images to classify individual cells as alive or dead. Data were plotted in a time course indicating the activity of the drug combination.

[2] = tested on: primary human lung cancer tissue; experiment: Combined dOCM and FLIM imaging of tissue viability in a primary human lung cancer tissue slice; assay type: cell-based; details: 10 μM
Experimental: FIG. 16 presents multimodal imaging of tissue viability with primary human lung cancer tissue using combined dOCM and FLIM. (a) dOCM and LMR images of a human lung cancer tissue slice. (b) dOCM and LMR images of another lung tissue slice from the same sample. The metabolic state of this sample is different from the tissue slice in (a). (c) The tissue slice in (a) was treated with 10 μM staurosporine. The slice was imaged 24 hours after treatment. […] Scale bar: 100 μm.
FIG. 16 presents multimodal imaging of tissue viability with primary human lung cancer tissue using combined dOCM and FLIM. (a) dOCM and LMR images of a human lung cancer tissue slice. (b) dOCM and LMR images of another lung tissue slice from the same sample. The metabolic state of this sample is different from the tissue slice in (a). (c) The tissue slice in (a) was treated with 10 μM staurosporine. The slice was imaged 24 hours after treatment. […] Scale bar 100 μm.

mouse liver = experiment: Multimodal dOCM and FLIM imaging of tissue viability in mouse liver after shikonin injection; assay type: cell-based; details: 100 nL, 6 μM, injected into the center of the tissue; PI staining
Experimental: 100 nL shikonin (6 μM) was injected into the center of the tissue to create necroptosis indicted by the white arrow. Scale bar: 100 μm. […] LMR values are indicated by the color bar.

Structure (SMILES): CN[C@@H]1C[C@H]2O[C@@](C)([C@@H]1OC)n1c3ccccc3c3c4c(c5c6ccccc6n2c5c31)C(=O)NC4 [staurosporine]
- tissue viability by dOCM (mouse liver slice): caused tissue death
- shift in the LMR relative to time zero healthy tissue ([1]; CT26 LTFs): large, reproducible shift to the right
- mode of cell death induced ([1]; CT26 LTFs): apoptosis
- cell state indicated by NADH and FAD phasor plots ([2]; 24 hours after treatment): undergoing apoptosis
- metabolic state (LMR) compared to that prior to treatment ([2]; 24 hours after treatment): shifted
- viable cells revealed by dOCM ([2]; imaged 24 hours after treatment): Less viable cells

Structure (SMILES): Cn1cnc(N)c2ncnc1-2 [3-MA]
- PI staining ([1]; CT26 live tumor fragment (FIG. 6)): dead cells
- LMR values of PI-stained cells ([1]; CT26 live tumor fragment treated and stained with PI (FIG. 6)): relatively uniform low LMR values

Structure (SMILES): CC(C)=CC[C@@H](O)C1=CC(=O)c2c(O)ccc(O)c2C1=O [Shikonin]
- mode of cell death created (mouse liver): necroptosis
- shift in the LMR relative to time zero healthy tissue ([1]; CT26 LTFs): large, reproducible shift to the left
- Caspase 3/7 staining ([1]; CT26 LTFs, stressed tissue): little to no Caspase 3/7 staining
- mode of cell death induced ([1]; CT26 LTFs): necroptosis
